Data on one compound can be found in patent publication US20170296457A1, “PRODUCTS AND METHODS FOR TREATING PERIORBITAL DYSCHROMIA” (The Procter & Gamble Company, priority 2016, published 2017).

This test has as its system B16-F1 mouse melanoma cell line. Kind of test: B16 melanin synthesis inhibition assay. It is filed as cell-based. The note with it: B16-F1 cells, OD at 410 nm. On the procedure:
In this example, a commercially available B16-F1 mouse melanoma cell line from American Tissue Culture Collection, Virginia, USA was employed in a conventional melanin synthesis inhibition assay. The cell culture medium used in the assay is 500 mL of Dulbecco's Modified Eagle's Medium (DMEM), 50 mL Fetal Bovine Serum (FBS), and 5 mL of penicillin-streptomycin liquid. B16-F1 cells that are cultured in this medium and grown to greater than 90% confluency will synthesize melanin. While not intending to be bound by any theory, it is hypothesized that the melanin synthesis is stimulated by the culture medium and/or stress induced by growth to a high confluency. […] Equipment used in the assay include a CO2 incubator, such as a Forma Series Model 3110 by Therma Scientific, Massachusetts, USA; a hemocytometer, such as a Bright Line model by Hauser Scientific, Pennsylvania, USA; and a UV-Visible Spectrum Plate Reader, such as a SpectraMax250 from Molecular Devices, California, USA. […] Day 3: The cells from the T-150 flask are trypsinized, and the concentration of cells is determined using the hemacytometer. […] Read the 96 well plate using the UV-Vis Plate Reader at 410 nm to optically measure the amount of melanin produced between wells that are treated with the pumpkin seed extract and control wells that are not. […] The concentration of test agent needed to provide the IC 50 is recorded.

As to `Oc1ccc(OC2CCCCO2)cc1` (stereo not shown) [Deoxyarbutin], the “Concentration Needed for IC 50 (v/v)” value stood at 0.008 v/v.
